In article PMC9482650, “Quantitative fragmentomics allow affinity mapping of interactomes” (Nature Communications, 2022):
Ends that are not written are not given here.

Tests used:
Format in all cases: binding
NHERF3_1 PDZ = NHERF3_1 PDZ (Homo sapiens, UniProt Q5T2W1); assay: Holdup assay; settings: composite holdup affinity; 0.00=below quantification threshold; read-out: COMP pKd (converted)
SNX27 PDZ = SNX27 PDZ (Homo sapiens, UniProt Q96L92); assay: Holdup assay; settings: composite holdup affinity; 0.00=below quantification threshold; read-out: COMP pKd (converted)
PDZD2_2 PDZ = PDZD2_2 PDZ (Homo sapiens, UniProt O15018); assay: Holdup assay; settings: composite holdup affinity; 0.00=below quantification threshold; read-out: COMP pKd (converted)
PDZD2_2 PDZ, sequence (O15018 334-419 limits assumed): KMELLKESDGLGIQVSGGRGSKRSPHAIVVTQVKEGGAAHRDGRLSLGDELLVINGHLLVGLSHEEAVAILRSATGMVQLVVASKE

MAGI3_2 PDZ = MAGI3_2 PDZ (Homo sapiens, UniProt Q5TCQ9); assay: Holdup assay; settings: composite holdup affinity; 0.00=below quantification threshold; read-out: COMP pKd (converted)
MAGI3_2 PDZ, sequence (Q5TCQ9 410-492 limits assumed): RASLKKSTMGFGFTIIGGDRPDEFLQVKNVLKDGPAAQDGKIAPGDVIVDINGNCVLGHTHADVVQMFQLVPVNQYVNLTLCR

MAGI1_2 PDZ = MAGI1_2 PDZ (Homo sapiens, UniProt Q96QZ7); assay: biochemical; settings: composite holdup affinity; 0.00=below quantification threshold; read-out: COMP pKd (converted)
MAGI1_2 PDZ, sequence (Q96QZ7 472-554 limits assumed): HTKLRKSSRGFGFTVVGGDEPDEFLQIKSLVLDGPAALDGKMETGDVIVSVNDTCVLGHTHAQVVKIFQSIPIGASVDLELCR

SYNJ2BP PDZ = molecular target: T1, SYNJ2BP PDZ (Homo sapiens, UniProt P57105); assay: Holdup assay; settings: composite holdup affinity; 0.00=below quantification threshold; read-out: COMP pKd (converted)
T1 sequence (P57105 13-100 limits assumed): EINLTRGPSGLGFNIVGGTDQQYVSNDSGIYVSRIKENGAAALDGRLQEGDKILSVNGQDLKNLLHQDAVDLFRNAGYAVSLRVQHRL

DLG3_2 PDZ = DLG3_2 PDZ (Homo sapiens, UniProt Q92796); assay: Holdup assay; settings: composite holdup affinity; 0.00=below quantification threshold; read-out: COMP pKd (converted)
DLG3_2 PDZ, sequence (Q92796 226-311 limits assumed): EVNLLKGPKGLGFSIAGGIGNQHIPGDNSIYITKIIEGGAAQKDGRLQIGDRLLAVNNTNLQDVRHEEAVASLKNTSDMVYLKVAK

DLG4_2 PDZ = DLG4_2 PDZ (Homo sapiens, UniProt P78352); assay: Holdup assay; settings: composite holdup affinity; 0.00=below quantification threshold; read-out: COMP pKd (converted)
DLG4_2 PDZ, sequence (P78352 160-246 limits assumed): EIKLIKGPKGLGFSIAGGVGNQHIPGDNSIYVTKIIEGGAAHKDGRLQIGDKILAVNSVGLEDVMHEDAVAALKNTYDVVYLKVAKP

DLG1_2 PDZ = DLG1_2 PDZ (Homo sapiens, UniProt Q12959); assay: Holdup assay; settings: composite holdup affinity; 0.00=below quantification threshold; read-out: COMP pKd (converted)
DLG1_2 PDZ, sequence (Q12959 319-405 limits assumed): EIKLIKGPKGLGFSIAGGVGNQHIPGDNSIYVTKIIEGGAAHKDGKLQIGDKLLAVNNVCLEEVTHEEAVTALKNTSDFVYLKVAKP

DLG2_2 PDZ = DLG2_2 PDZ (Homo sapiens, UniProt Q15700); assay: Holdup assay; settings: composite holdup affinity; 0.00=below quantification threshold; read-out: COMP pKd (converted)
DLG2_2 PDZ, sequence (Q15700 193-279 limits assumed): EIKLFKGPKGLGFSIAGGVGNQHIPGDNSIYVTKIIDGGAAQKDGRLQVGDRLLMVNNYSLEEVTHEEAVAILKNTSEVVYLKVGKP

LNX2_2 PDZ = LNX2_2 PDZ (Homo sapiens, UniProt Q8N448); assay: Holdup assay; settings: composite holdup affinity; 0.00=below quantification threshold; read-out: COMP pKd (converted)
LNX2_2 PDZ, sequence (Q8N448 339-422 limits assumed): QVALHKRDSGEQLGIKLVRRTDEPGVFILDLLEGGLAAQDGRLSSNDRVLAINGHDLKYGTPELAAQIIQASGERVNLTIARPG

PTPN3 PDZ = PTPN3 PDZ (Homo sapiens, UniProt P26045); assay: Holdup assay; settings: composite holdup affinity; 0.00=below quantification threshold; read-out: COMP pKd (converted)
PTPN3 PDZ, sequence (P26045 510-582 limits assumed): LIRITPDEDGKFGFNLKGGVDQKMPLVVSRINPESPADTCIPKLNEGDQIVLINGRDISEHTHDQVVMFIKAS

MAST1 PDZ = MAST1 PDZ (Homo sapiens, UniProt Q9Y2H9); assay: Holdup assay; settings: composite holdup affinity; 0.00=below quantification threshold; read-out: COMP pKd (converted)
MAST1 PDZ, sequence (Q9Y2H9 967-1055 limits assumed): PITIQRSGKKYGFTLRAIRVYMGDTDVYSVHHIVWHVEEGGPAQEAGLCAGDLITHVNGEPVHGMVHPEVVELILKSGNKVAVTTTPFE

SNTG2 PDZ = SNTG2 PDZ (Homo sapiens, UniProt Q9NY99); assay: Holdup assay; settings: composite holdup affinity; 0.00=below quantification threshold; read-out: COMP pKd (converted)
SNTG2 PDZ, sequence (Q9NY99 73-156 limits assumed): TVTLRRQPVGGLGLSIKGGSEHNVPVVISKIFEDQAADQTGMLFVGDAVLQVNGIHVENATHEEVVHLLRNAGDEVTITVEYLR

SNTG1 PDZ = SNTG1 PDZ (Homo sapiens, UniProt Q9NSN8); assay: Holdup assay; settings: composite holdup affinity; 0.00=below quantification threshold; read-out: COMP pKd (converted)
SNTG1 PDZ, sequence (Q9NSN8 57-140 limits assumed): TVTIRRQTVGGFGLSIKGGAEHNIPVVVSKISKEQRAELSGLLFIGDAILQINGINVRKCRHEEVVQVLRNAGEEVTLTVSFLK

SNTB1 PDZ = SNTB1 PDZ (Homo sapiens, UniProt Q13884); assay: Holdup assay; settings: composite holdup affinity; 0.00=below quantification threshold; read-out: COMP pKd (converted)
SNTB1 PDZ, sequence (Q13884 112-195 limits assumed): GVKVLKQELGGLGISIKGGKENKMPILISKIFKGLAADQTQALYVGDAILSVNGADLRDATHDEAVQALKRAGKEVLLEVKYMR

SNTA1 PDZ = SNTA1 PDZ (Homo sapiens, UniProt Q13424); assay: Holdup assay; settings: composite holdup affinity; 0.00=below quantification threshold; read-out: COMP pKd (converted)
SNTA1 PDZ, sequence (Q13424 87-170 limits assumed): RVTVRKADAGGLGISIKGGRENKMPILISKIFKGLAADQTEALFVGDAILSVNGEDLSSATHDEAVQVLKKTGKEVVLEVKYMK

SCRIB2 PDZ = molecular target: T2, SCRIB2 PDZ (Homo sapiens, UniProt Q14160); assay: Holdup assay; settings: composite holdup affinity; 0.00=below quantification threshold; read-out: COMP pKd (converted)
T2 sequence (Q14160 862-950 limits assumed): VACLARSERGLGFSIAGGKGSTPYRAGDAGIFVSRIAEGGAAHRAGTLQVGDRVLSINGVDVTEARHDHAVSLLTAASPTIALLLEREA

LAP2 PDZ = LAP2 PDZ (Homo sapiens, UniProt Q96RT1); assay: Holdup assay; settings: composite holdup affinity; 0.00=below quantification threshold; read-out: COMP pKd (converted)
LAP2 PDZ, sequence (Q96RT1 1321-1410 limits assumed): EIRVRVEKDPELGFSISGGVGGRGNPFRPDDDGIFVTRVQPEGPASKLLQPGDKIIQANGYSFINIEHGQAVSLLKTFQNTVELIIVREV

PDZRN3_1 PDZ = PDZRN3_1 PDZ (Homo sapiens, UniProt Q9UPQ7); assay: Holdup assay; settings: composite holdup affinity; 0.00=below quantification threshold; read-out: COMP pKd (converted)
PDZRN3_1 PDZ, sequence (Q9UPQ7 249-339 limits assumed): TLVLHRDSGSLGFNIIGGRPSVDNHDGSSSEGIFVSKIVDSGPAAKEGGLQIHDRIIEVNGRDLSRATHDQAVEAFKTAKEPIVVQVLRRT

DFNB31_1 PDZ = DFNB31_1 PDZ (Homo sapiens, UniProt Q9P202); assay: Holdup assay; settings: composite holdup affinity; 0.00=below quantification threshold; read-out: COMP pKd (converted)
DFNB31_1 PDZ, sequence (Q9P202 140-223 limits assumed): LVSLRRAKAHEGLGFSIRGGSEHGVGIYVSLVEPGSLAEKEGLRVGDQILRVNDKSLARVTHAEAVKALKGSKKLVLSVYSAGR

GOPC PDZ = GOPC PDZ (Homo sapiens, UniProt Q9HD26); assay: Holdup assay; settings: composite holdup affinity; 0.00=below quantification threshold; read-out: COMP pKd (converted)
ARHGEF12 PDZ = ARHGEF12 PDZ (Homo sapiens, UniProt Q9NZN5); assay: Holdup assay; settings: composite holdup affinity; 0.00=below quantification threshold; read-out: COMP pKd (converted)
ARHGEF12 PDZ, sequence (Q9NZN5 72-151 limits assumed): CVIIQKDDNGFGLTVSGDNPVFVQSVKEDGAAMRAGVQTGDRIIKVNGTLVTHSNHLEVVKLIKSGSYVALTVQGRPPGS

ARHGEF11 PDZ = ARHGEF11 PDZ (Homo sapiens, UniProt O15085); assay: Holdup assay; settings: composite holdup affinity; 0.00=below quantification threshold; read-out: COMP pKd (converted)
ARHGEF11 PDZ, sequence (O15085 47-126 limits assumed): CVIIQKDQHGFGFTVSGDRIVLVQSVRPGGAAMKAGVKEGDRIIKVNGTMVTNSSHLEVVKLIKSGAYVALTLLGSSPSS

DLG3_1 PDZ = DLG3_1 PDZ (Homo sapiens, UniProt Q92796); assay: Holdup assay; settings: composite holdup affinity; 0.00=below quantification threshold; read-out: COMP pKd (converted)
DLG3_1 PDZ, sequence (Q92796 130-217 limits assumed): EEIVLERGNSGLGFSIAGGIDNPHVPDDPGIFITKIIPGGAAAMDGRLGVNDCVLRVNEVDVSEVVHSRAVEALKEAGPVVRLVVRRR

DLG2_3 PDZ = DLG2_3 PDZ (Homo sapiens, UniProt Q15700); assay: Holdup assay; settings: composite holdup affinity; 0.00=below quantification threshold; read-out: COMP pKd (converted)
DLG2_3 PDZ, sequence (Q15700 421-501 limits assumed): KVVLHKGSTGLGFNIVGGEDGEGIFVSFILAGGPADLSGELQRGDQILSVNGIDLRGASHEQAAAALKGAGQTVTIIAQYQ

DLG4_3 PDZ = DLG4_3 PDZ (Homo sapiens, UniProt P78352); assay: Holdup assay; settings: composite holdup affinity; 0.00=below quantification threshold; read-out: COMP pKd (converted)
DLG4_3 PDZ, sequence (P78352 313-393 limits assumed): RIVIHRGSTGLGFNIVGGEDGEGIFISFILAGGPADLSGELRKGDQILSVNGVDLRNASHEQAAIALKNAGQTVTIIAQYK

DLG3_3 PDZ = DLG3_3 PDZ (Homo sapiens, UniProt Q92796); assay: Holdup assay; settings: composite holdup affinity; 0.00=below quantification threshold; read-out: COMP pKd (converted)
DLG3_3 PDZ, sequence (Q92796 379-465 limits assumed): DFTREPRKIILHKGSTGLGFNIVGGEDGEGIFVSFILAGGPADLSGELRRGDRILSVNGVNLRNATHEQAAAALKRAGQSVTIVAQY

FRMPD2_2 PDZ = FRMPD2_2 PDZ (Homo sapiens, UniProt Q68DX3); assay: Holdup assay; settings: composite holdup affinity; 0.00=below quantification threshold; read-out: COMP pKd (converted)
FRMPD2_2 PDZ, sequence (Q68DX3 950-1035 limits assumed): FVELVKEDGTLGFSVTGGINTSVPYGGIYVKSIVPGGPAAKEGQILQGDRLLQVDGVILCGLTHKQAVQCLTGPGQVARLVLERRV

NOS1 PDZ = NOS1 PDZ (Homo sapiens, UniProt P29475); assay: Holdup assay; settings: composite holdup affinity; 0.00=below quantification threshold; read-out: COMP pKd (converted)
NOS1 PDZ, sequence (P29475 17-99 limits assumed): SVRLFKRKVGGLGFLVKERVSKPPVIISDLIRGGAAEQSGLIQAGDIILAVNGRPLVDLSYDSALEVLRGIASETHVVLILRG

APBA1_2 PDZ = APBA1_2 PDZ (Homo sapiens, UniProt Q02410); assay: Holdup assay; settings: composite holdup affinity; 0.00=below quantification threshold; read-out: COMP pKd (converted)
APBA1_2 PDZ, sequence (Q02410 747-822 limits assumed): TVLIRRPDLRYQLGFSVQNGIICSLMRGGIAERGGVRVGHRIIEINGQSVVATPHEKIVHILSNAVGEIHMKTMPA

LIN7C PDZ = LIN7C PDZ (Homo sapiens, UniProt Q9NUP9); assay: Holdup assay; settings: composite holdup affinity; 0.00=below quantification threshold; read-out: COMP pKd (converted)
LIN7C PDZ, sequence (Q9NUP9 93-175 limits assumed): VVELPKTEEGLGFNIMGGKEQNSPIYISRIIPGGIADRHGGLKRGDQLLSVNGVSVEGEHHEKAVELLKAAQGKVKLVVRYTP

GIPC2 PDZ = GIPC2 PDZ (Homo sapiens, UniProt Q8TF65); assay: Holdup assay; settings: composite holdup affinity; 0.00=below quantification threshold; read-out: COMP pKd (converted)
GIPC2 PDZ, sequence (Q8TF65 117-197 limits assumed): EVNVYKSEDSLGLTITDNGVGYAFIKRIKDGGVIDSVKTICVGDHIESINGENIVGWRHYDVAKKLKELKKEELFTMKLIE

GRIP1_2 PDZ = GRIP1_2 PDZ (Homo sapiens, UniProt Q9Y3R0); assay: Holdup assay; settings: composite holdup affinity; 0.00=below quantification threshold; read-out: COMP pKd (converted)
GRIP1_2 PDZ, sequence (Q9Y3R0 150-238 limits assumed): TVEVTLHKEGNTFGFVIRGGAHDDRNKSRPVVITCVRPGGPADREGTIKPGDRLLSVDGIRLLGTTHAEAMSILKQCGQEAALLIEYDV

DLG2_1 PDZ = DLG2_1 PDZ (Homo sapiens, UniProt Q15700); assay: Holdup assay; settings: sheet PPI_convert; read-out: affinity to PDZ DLG2_1 (converted)
DLG2_1 PDZ, sequence (Q15700 98-184): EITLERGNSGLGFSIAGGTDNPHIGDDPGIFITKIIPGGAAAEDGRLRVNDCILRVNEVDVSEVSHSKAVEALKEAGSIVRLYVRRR

GIPC1 PDZ = GIPC1 PDZ (Homo sapiens, UniProt O14908); assay: Holdup assay; settings: sheet PPI_convert; read-out: affinity to PDZ GIPC1 (converted)
GIPC1 PDZ, sequence (O14908 133-213 limits assumed): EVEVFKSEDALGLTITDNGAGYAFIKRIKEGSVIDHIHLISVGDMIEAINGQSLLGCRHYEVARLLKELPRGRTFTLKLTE
Text: Supplement 41467_2022_33018_MOESM4_ESM.xlsx, sheet "PPI_convert" | column: GIPC1

NHERF3_1 PDZ, sequence (Q5T2W1 9-90 limits assumed): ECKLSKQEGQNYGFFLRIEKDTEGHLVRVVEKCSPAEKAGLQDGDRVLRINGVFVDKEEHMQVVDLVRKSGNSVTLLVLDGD

Sequence	Kd (NHERF3_1 PDZ) [µM]	Kd (SNX27 PDZ) [µM]	Kd (PDZD2_2 PDZ) [µM]	Kd (MAGI3_2 PDZ) [µM]	Kd (MAGI1_2 PDZ) [µM]	Kd (SYNJ2BP PDZ) [µM]	Kd (DLG3_2 PDZ) [µM]	Kd (DLG4_2 PDZ) [µM]	Kd (DLG1_2 PDZ) [µM]	Kd (DLG2_2 PDZ) [µM]	Kd (LNX2_2 PDZ) [µM]	Kd (PTPN3 PDZ) [µM]	Kd (MAST1 PDZ) [µM]	Kd (SNTG2 PDZ) [µM]	Kd (SNTG1 PDZ) [µM]	Kd (SNTB1 PDZ) [µM]	Kd (SNTA1 PDZ) [µM]	Kd (SCRIB2 PDZ) [µM]	Kd (LAP2 PDZ) [µM]	Kd (PDZRN3_1 PDZ) [µM]	further results
RHTTSTETAV [HPV30-E6]	13.5	2.29	38	4.37	40.7	4.37	3.89	3.55	2.34	6.46	170	7.41	21.9	21.4	11.5	7.94	19.1	7.76	34.7	20.9	Kd (DFNB31_1 PDZ): 53.7 µM; Kd (GOPC PDZ): 72.4 µM; Kd (ARHGEF12 PDZ): 63.1 µM; Kd (ARHGEF11 PDZ): 44.7 µM; Kd (DLG3_1 PDZ): 35.5 µM; Kd (DLG2_3 PDZ): 16.2 µM; Kd (DLG4_3 PDZ): 44.7 µM; Kd (DLG3_3 PDZ): 21.9 µM; Kd (FRMPD2_2 PDZ): 58.9 µM; Kd (NOS1 PDZ): 23.4 µM; Kd (APBA1_2 PDZ): 58.9 µM; Kd (LIN7C PDZ): 64.6 µM; Kd (GIPC2 PDZ): 110 µM; Kd (GRIP1_2 PDZ): 166 µM; Kd (DLG2_1 PDZ): 14.5 µM; Kd (GIPC1 PDZ): 20 µM
RTRQRNETQV [HPV51-E6]	67.6	14.1	263	1.48	1.17	9.55	7.94	10.2	7.41	10.7	245	41.7	58.9	60.3	105	81.3	58.9	40.7	204	87.1	Kd (DFNB31_1 PDZ): 339 µM; Kd (GOPC PDZ): 191 µM; Kd (ARHGEF12 PDZ): 186 µM; Kd (ARHGEF11 PDZ): 204 µM; Kd (DLG3_1 PDZ): 52.5 µM; Kd (DLG2_3 PDZ): 17.8 µM; Kd (DLG4_3 PDZ): 17.8 µM; Kd (DLG3_3 PDZ): 12.3 µM; Kd (FRMPD2_2 PDZ): 389 µM; Kd (NOS1 PDZ): 123 µM; Kd (APBA1_2 PDZ): 275 µM; Kd (LIN7C PDZ): 145 µM; Kd (GIPC2 PDZ): 234 µM; Kd (GRIP1_2 PDZ): 347 µM; Kd (DLG2_1 PDZ): 8.71 µM; Kd (GIPC1 PDZ): 7.94 µM
